According to ChEMBL document CHEMBL4433198, “Fragment-to-Lead Medicinal Chemistry Publications in 2017” (J Med Chem, 2019):

Molecular target: Induced myeloid leukemia cell differentiation protein Mcl-1 (Homo sapiens, UniProt Q07820)
Assay: Binding affinity to MCL1 (unknown origin) assessed as inhibition of Mcl1-FAMbid protein-protein interaction after 1 min by fluorescence polarization assay

Induced myeloid leukemia cell differentiation protein Mcl-1, sequence (Q07820 whole entry): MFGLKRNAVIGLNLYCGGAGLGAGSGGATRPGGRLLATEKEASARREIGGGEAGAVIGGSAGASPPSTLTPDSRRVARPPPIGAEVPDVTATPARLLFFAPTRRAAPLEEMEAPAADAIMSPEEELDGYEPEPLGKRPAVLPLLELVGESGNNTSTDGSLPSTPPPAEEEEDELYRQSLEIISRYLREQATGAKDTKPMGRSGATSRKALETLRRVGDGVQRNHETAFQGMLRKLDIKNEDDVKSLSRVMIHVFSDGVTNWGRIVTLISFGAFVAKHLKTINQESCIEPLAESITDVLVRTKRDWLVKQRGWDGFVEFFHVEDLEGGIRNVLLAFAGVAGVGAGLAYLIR

- Kd: 0.48 µM
Compound: O=C(O)c1cc2ccccc2n1S(=O)(=O)c1ccc(OCc2cccc(Cl)c2)cc1
